Reference: the supplement of paper PMC10307832

What was measured:
Experiment in all cases: relative viability (nuclei count vs DMSO), 5 days (fraction); higher = more cells survive
NCI-H661 = settings: first compound 4 µM
Summary of the method: (§1)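 Lung cancer cell lines in 1536-well plates got either a single drug or a fixed anchor-drug dose together with five library-drug doses (not always all listed) in √10 steps, by pin tool, on the day after seeding. Nuclei were counted after 5 days, and relative viability is the treated-to-vehicle ratio of nuclei counts. Values are medians of duplicate plates.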

NCI-H2087 = test system: NCI-H2087
Summary of the method: as §1

201T = test system: 201T
Summary of the method: as §1

H3255 = test system: H3255
Summary of the method: as §1

RERF-LC-KJ = test system: RERF-LC-KJ
Summary of the method: as §1

PC-14 = test system: PC-14
Summary of the method: as §1

NCI-H2126 = test system: NCI-H2126
Summary of the method: as §1

NCI-H23 = test system: NCI-H23
Summary of the method: as §1

NCI-H1666 = test system: NCI-H1666
Summary of the method: as §1

HCC-827 = test system: HCC-827
Summary of the method: as §1

LC-2-ad = test system: LC-2-ad
Summary of the method: as §1

HCC-78 = test system: HCC-78
Summary of the method: as §1

NCI-H2405 = test system: NCI-H2405
Summary of the method: as §1

Q: What does the source list for `COc1cc(N2CCC(C(N)=O)CC2)ccc1Nc1nc(N)c(Cl)c(Nc2ccccc2S(=O)(=O)C(C)C)n1` [HG-5-88-01] + COc1cccc2cc(-c3nc([C@H]4CC[C@H](C(=O)O)CC4)n4ncnc(N)c34)[nH]c12 [OSI-027] (partner 0.5 µM)?
A: relative viability (NCI-H661): 0.569; relative viability (NCI-H2087; first compound 0.04 µM): 0.521; relative viability (NCI-H2087; first compound 0.1265 µM): 0.542; relative viability (NCI-H2087; first compound 0.4 µM): 0.505; relative viability (NCI-H2087; first compound 1.265 µM): 0.349; relative viability (NCI-H2087; first compound 4 µM): 0.215; relative viability (201T; first compound 0.04 µM): 0.84; relative viability (201T; first compound 0.1265 µM): 0.745; relative viability (201T; first compound 0.4 µM): 0.428; relative viability (201T; first compound 1.265 µM): 0.668; relative viability (201T; first compound 4 µM): 0.303; relative viability (H3255; first compound 0.04 µM): 0.558; relative viability (H3255; first compound 0.1265 µM): 0.538; relative viability (H3255; first compound 0.4 µM): 0.643; relative viability (H3255; first compound 4 µM): 0.432; relative viability (RERF-LC-KJ; first compound 0.04 µM): 0.637; relative viability (RERF-LC-KJ; first compound 0.1265 µM): 0.54; relative viability (RERF-LC-KJ; first compound 0.4 µM): 0.506; relative viability (RERF-LC-KJ; first compound 1.265 µM): 0.345; relative viability (RERF-LC-KJ; first compound 4 µM): 0.308; relative viability (PC-14; first compound 0.04 µM): 0.849; relative viability (PC-14; first compound 0.1265 µM): 1.12; relative viability (PC-14; first compound 0.4 µM): 0.65; relative viability (PC-14; first compound 1.265 µM): 0.321; relative viability (PC-14; first compound 4 µM): 0.218; relative viability (NCI-H2126; first compound 0.1265 µM): 0.688; relative viability (NCI-H2126; first compound 0.4 µM): 0.71; relative viability (NCI-H2126; first compound 1.265 µM): 0.518; relative viability (NCI-H2126; first compound 4 µM): 0.432; relative viability (NCI-H23; first compound 0.04 µM): 0.511; relative viability (NCI-H23; first compound 0.1265 µM): 0.605; relative viability (NCI-H23; first compound 0.4 µM): 0.615; relative viability (NCI-H23; first compound 1.265 µM): 0.311; relative viability (NCI-H23; first compound 4 µM): 0.238; relative viability (NCI-H1666; first compound 0.04 µM): 0.866; relative viability (NCI-H1666; first compound 0.1265 µM): 0.859; relative viability (NCI-H1666; first compound 0.4 µM): 0.692; relative viability (NCI-H1666; first compound 1.265 µM): 0.605; relative viability (NCI-H1666; first compound 4 µM): 0.532; relative viability (HCC-827; first compound 0.04 µM): 0.819; relative viability (HCC-827; first compound 0.1265 µM): 0.89; relative viability (HCC-827; first compound 0.4 µM): 0.8; relative viability (HCC-827; first compound 1.265 µM): 0.564; relative viability (HCC-827; first compound 4 µM): 0.406; relative viability (LC-2-ad; first compound 0.04 µM): 0.819; relative viability (LC-2-ad; first compound 0.1265 µM): 0.944; relative viability (LC-2-ad; first compound 0.4 µM): 0.826; relative viability (LC-2-ad; first compound 1.265 µM): 0.558; relative viability (LC-2-ad; first compound 4 µM): 0.416; relative viability (HCC-78; first compound 0.04 µM): 0.359; relative viability (HCC-78; first compound 0.1265 µM): 0.293; relative viability (HCC-78; first compound 0.4 µM): 0.349; relative viability (HCC-78; first compound 1.265 µM): 0.27; relative viability (HCC-78; first compound 4 µM): 0.301; relative viability (NCI-H2405; first compound 0.04 µM): 0.579; relative viability (NCI-H2405; first compound 0.1265 µM): 0.559; relative viability (NCI-H2405; first compound 0.4 µM): 0.539; relative viability (NCI-H2405; first compound 1.265 µM): 0.343; relative viability (NCI-H2405; first compound 4 µM): 0.382
